Data on 9 molecules can be found in patent publication US6767718B2, “Lipodepsipeptide antibiotics and methods of preparation” (BioSource Pharm, Inc., priority 2002, dated 2004).

Numbered stars: 1 amine (or outer) side, 2 acyl side, 3 side chain; on linkers, the order of the positions; unused ones are H or OH. Bridge positions count the residues as written; N and C are the ends. Square brackets hold non-standard residues; d marks the D form. Peptide text beside a SMILES is read from it. * marks the point of attachment. X1 = CC(CC(=O)O)C(N[*:1])C(=O)[*:2]; Kyn = Nc1ccccc1C(=O)C[CH](N)C(=O)O; NH(CH2)11CH3 = CCCCCCCCCCCCN*; Orn = NCCC[CH](N)C(=O)O; CO = O=C([*:1])[*:2]

The subject of test [1] is Staphlococcus aureus strain Smith. As to the kind of experiment: MIC by serial twofold broth dilution in Mueller Hinton broth without and with 4 mmolar CaCl2. In kind it is cell-based, Staphylococcus aureus. As to conditions: for MIC vs. S. aureus w Ca++ / MIC vs. S. aureus wo Ca++: S. aureus strain Smith; for MIC vs. S. aureus w Ca++: Mueller Hinton broth with 4 mmolar CaCl2; for MIC vs. S. aureus wo Ca++: Mueller Hinton broth without CaCl2.

In test [2] the test system is gram positive bacteria including methicillin-resistant Staphylococcus aureus (MRSA) and vancomycin-resistant enterococci (VRE). As to conditions: including MRSA and VRE strains; cited from earlier work.

For the molecule “CH3(CH2)9SO2-L-Phe-Asn-Asp-FMOC-cdpeptide [Compound 8]”, in test [1], the “MIC vs. S. aureus w Ca++” value was determined as 5.0 and the “MIC vs. S. aureus wo Ca++” value was more than 20.
`CCCCCCCCCCCCNC(=O)NC(CC(=O)O)C(=O)NC1C(=O)NCC(=O)NC(CCCN)C(=O)NC(CC(=O)O)C(=O)NC(C)C(=O)NC(CC(=O)O)C(=O)NCC(=O)NC(CO)C(=O)NC(C(C)CC(=O)O)C(=O)NC(CC(=O)c2ccccc2N)C(=O)OC1C` (centres unmarked) [Compound 1, N-Dodecylcarbamoyl-cyclodepsipeptide-1] ({NH(CH2)11CH3-CO}-DTG[Orn]DADGS[X1][Kyn]; ester 2-C; configuration not given here): in test [1], the “MIC vs. S. aureus w Ca++” value was determined as 10.0 and the “MIC vs. S. aureus wo Ca++” value is listed as more than 20. Moreover, in test [1] (carbamoyl-linked compounds, Table 2), the “Antibacterial activity (in words)” value is given as “good antibacterial activity”.
As to `CCCCCCCCCC(=O)NC(Cc1cccc2ccccc12)C(=O)NC(CC(N)=O)C(=O)NC(CC(=O)O)C(=O)NC1C(=O)NCC(=O)NC(CCCN)C(=O)NC(CC(=O)O)C(=O)NC(C)C(=O)NC(CC(=O)O)C(=O)NCC(=O)NC(CO)C(=O)NC(C(C)CC(=O)O)C(=O)NC(CC(=O)c2ccccc2N)C(=O)OC1C` [Compound 11, N-Decanoyl-L-β-(1-naphthyl)alanyl-cyclodepsipeptide-2], in test [1], the “MIC vs. S. aureus w Ca++” value was determined as 0.16 and the “MIC vs. S. aureus wo Ca++” value stood at 2.5.
As to “CH3(CH2)8CO-Asn-Asp-cdpeptide [Compound 4]”, in test [1], the “MIC vs. S. aureus w Ca++” value is on record as more than 10 and the “MIC vs. S. aureus wo Ca++” value was more than 20.
The matching figures for “CH3(CH2)8CO-L-Harm-Asn-Asp-cdpeptide [Compound 13]”: 5.0 and more than 10.
The matching figures for “CH3(CH2)8CO-Trp-Asn-Asp-tBOC-cdpeptide [tBOC daptomycin, reference compound]”: 0.6 and more than 2.5.
The matching figures for “CH3(CH2)8CO-D-Harm-Asn-Asp-cdpeptide [Compound 14]”: more than 10 and more than 10.
For the molecule “CH3(CH2)11NHCO-Asn-Asp-FMOC-cdpeptide [Compound 2]”, in test [1], the “MIC vs. S. aureus w Ca++” value is recorded as 5.0 and the “MIC vs. S. aureus wo Ca++” value is more than 20.
As to “CH3(CH2)8CO-Trp-Asn-Asp-cdpeptide [daptomycin, reference compound]”, the “Activity against gram positive bacteria (in words)” value in test [2] is listed as “excellent activity”. In test [1], the “MIC vs. S. aureus w Ca++” value is listed as 0.16 and the “MIC vs. S. aureus wo Ca++” value was 2.5.
